Experimental data: US10336760B2, “Inhibitors of cyclin-dependent kinase 7 (CDK7)” (SYROS PHARMACEUTICALS, INC., priority 2014, dated 2019)
Read-outs that look alike come from different tables or passages of the source.

Legend:
A673 cells = experiment: Inhibition of A673 cell proliferation (CyQUANT); format: cell-based; settings: Homo sapiens, read-out: A673 IC50
Experimental: Representative compounds of the invention were tested at different concentrations (from 4 μM to 126.4 pM; 0.5 log serial dilutions) for their ability to inhibit the proliferation of A673 cells. Known CDK inhibitors flavopiridol and triptolide were used as positive controls. Cells were grown in Dulbecco's Modified Eagle's Medium, +10% FBS+1 mM Sodium Pyruvate. The cells were cultured at 37° C. in a humidified chamber in the presence of 5% CO2. Proliferation assays were conducted over a 72 hour time period. CyQUANT® (Life Technologies, Chicago, Ill. USA) was used to assess the anti-proliferative effects of the compounds following manufacturer's directions and utilizing the reagents supplied with the CyQUANT® kit.

CDK7 = target: T1, CDK7 (Homo sapiens, UniProt P50613); experiment: CDK7 kinase activity, Adapta kinase assay (Life Technologies); format: biochemical; settings: read-out: CDK7 Inhibition (IC50); also: concentrations from 10 µM down to 0.514 nM
T1 construct: purchased Life Technologies (Grand Island, N.Y.), Adapta kinase assay service
Experimental: Compounds of the invention were assayed for CDK7 activity at Life Technologies (Grand Island, N.Y.) using their commercially available Adapta® kinase assay services. […] Details of this assay, including substrates used, are available on the Life Technologies web site (http://www.lifetechnologies.com/us/en/home/life-science/drug-discovery/target-and-lead-identification-and-validation/kinasebiology/kinase-activity-assays.html).

[1] = A673 cells, 72 hour proliferation, CyQUANT, 4 μM to 126.4 pM, 0.5 log serial dilutions

T1 sequence (P50613 whole entry): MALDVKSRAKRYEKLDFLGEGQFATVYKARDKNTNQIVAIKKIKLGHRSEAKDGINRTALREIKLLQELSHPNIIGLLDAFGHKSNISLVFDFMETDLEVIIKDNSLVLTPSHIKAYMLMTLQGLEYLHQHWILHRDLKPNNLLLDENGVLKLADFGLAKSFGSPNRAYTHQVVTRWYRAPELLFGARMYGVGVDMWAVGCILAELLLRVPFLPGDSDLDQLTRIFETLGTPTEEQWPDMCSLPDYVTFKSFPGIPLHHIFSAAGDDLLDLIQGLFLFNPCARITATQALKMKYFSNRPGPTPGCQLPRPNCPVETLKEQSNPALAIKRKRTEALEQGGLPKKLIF
T1 sequence (P51946 whole entry partner): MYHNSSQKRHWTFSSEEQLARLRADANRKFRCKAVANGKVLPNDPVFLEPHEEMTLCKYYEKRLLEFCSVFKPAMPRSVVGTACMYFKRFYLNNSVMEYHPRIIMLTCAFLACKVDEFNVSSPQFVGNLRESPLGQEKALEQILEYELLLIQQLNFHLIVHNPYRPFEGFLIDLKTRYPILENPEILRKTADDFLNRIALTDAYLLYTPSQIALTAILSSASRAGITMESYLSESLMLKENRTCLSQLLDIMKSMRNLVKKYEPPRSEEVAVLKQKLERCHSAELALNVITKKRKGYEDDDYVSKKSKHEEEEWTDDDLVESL
T1 sequence (P51948 whole entry partner): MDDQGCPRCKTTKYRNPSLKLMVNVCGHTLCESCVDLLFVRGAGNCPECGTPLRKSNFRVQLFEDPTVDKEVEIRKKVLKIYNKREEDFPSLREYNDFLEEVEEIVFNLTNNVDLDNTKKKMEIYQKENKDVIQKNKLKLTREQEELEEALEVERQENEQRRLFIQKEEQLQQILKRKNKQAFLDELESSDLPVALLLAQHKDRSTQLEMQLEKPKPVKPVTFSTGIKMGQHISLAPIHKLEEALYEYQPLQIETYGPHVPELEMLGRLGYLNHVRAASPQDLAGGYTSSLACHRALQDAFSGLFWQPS

Row | Structure (SMILES) | IC50 (A673 cells; A673, 72 h) [µM] | IC50 (CDK7) [µM] | IC50 (A673 cells; [1]) [µM]
1 | C=CC(=O)N1CCC(CN2CCC(C(=O)Nc3ncc(SCc4ncc(C(C)(C)C)o4)s3)CC2)CC1 [Compound 120, 1-((1-Acryloylpiperidin-4-yl)methyl)-N-(5-(((5-(tert-butyl)oxazol-2-yl)methyl)thio)thiazol-2-yl)piperidine-4-carboxamide] | < 0.5 | > 1 | 
2 | CC(C)c1cnn2c(NCc3ccccc3NC(=O)c3ccc(NC(=O)/C=C/CN(C)C)cc3)nc(OC3CCN(C)CC3)nc12 [Compound 103, (E)-4-(4-(dimethylamino)but-2-enamido)-N-(2-(((8-isopropyl-2-((1-methylpiperidin-4-yl)oxy)pyrazolo[1,5-a][1,3,5]triazin-4-yl)amino)methyl)phenyl)benzamide] |  | 0.1 to 1 | 0.5 to 5
3 | CC(C)c1cnn2c(NC3CCN(C(=O)c4ccc(NC(=O)/C=C/CN(C)C)cc4)CC3)nc(OC3CCN(C)CC3)nc12 [Compound 102, (E)-4-(Dimethylamino)-N-(4-(4-((8-isopropyl-2-((1-methylpiperidin-4-yl)oxy)pyrazolo[1,5-a][1,3,5]triazin-4-yl)amino)piperidine-1-carbonyl)phenyl)but-2-enamide] |  | > 1 | 0.5 to 5
4 | C=CC(=O)Nc1cccc(CN2CCC(C(=O)Nc3ncc(SCc4ncc(C(C)(C)C)o4)s3)CC2)c1 [Compound 118, 1-(3-Acrylamidobenzyl)-N-(5-(((5-(tert-butyl)oxazol-2-yl)methyl)thio)thiazol-2-yl)piperidine-4-carboxamide] | < 0.5 | 0.1 to 1 | 
5 | C=CC(=O)N1CCCC(CN2CCC(C(=O)Nc3ncc(SCc4ncc(C(C)(C)C)o4)s3)CC2)C1 (centres unmarked) [Compound 125, 1-((1-Acryloylpiperidin-3-yl)methyl)-N-(5-(((5-(tert-butyl)oxazol-2-yl)methyl)thio)thiazol-2-yl)piperidine-4-carboxamide] | < 0.5 | 0.1 to 1 | 
6 | CC(C)c1cnn2c(NCc3ccccc3N3CCN(C(=O)/C=C/CN(C)C)CC3)nc(OC3CCN(C)CC3)nc12 [Compound 105, (E)-4-(Dimethylamino)-1-(4-(2-(((8-isopropyl-2-((1-methylpiperidin-4-yl)oxy)pyrazolo[1,5-a][1,3,5]triazin-4-yl)amino)methyl)phenyl)piperazin-1-yl)but-2-en-1-one] |  | < 0.1 | < 0.5
7 | C=CC(=O)Nc1ccc(CN2CCC(C(=O)Nc3ncc(SCc4ncc(C(C)(C)C)o4)s3)CC2)cc1 [Compound 119, 1-(4-Acrylamidobenzyl)-N-(5-(((5-(tert-butyl)oxazol-2-yl)methyl)thio)thiazol-2-yl)piperidine-4-carboxamide] | < 0.5 | 0.1 to 1 | 
8 | CC(C)c1cnn2c(NCc3ccccc3NCc3ccc(NC(=O)/C=C/CN(C)C)cc3)nc(OC3CCN(C)CC3)nc12 [Compound 104, (E)-4-(dimethylamino)-N-(4-(((2-(((8-isopropyl-2-((1-methylpiperidin-4-yl)oxy)pyrazolo[1,5-a][1,3,5]triazin-4-yl)amino)methyl)phenyl)amino)methyl)phenyl)but-2-enamide] |  | < 0.1 | < 0.5
9 | C=CC(=O)Nc1cccc(C(=O)N2CCC(C(=O)Nc3ncc(SCc4ncc(C(C)(C)C)o4)s3)CC2)c1 [Compound 117, 1-(3-Acrylamidobenzoyl)-N-(5-(((5-(tert-butyl)oxazol-2-yl)methyl)thio)thiazol-2-yl)piperidine-4-carboxamide] |  |  | < 0.5
10 | C=CC(=O)N1CCC(C(=O)N2CCC(C(=O)Nc3ncc(SCc4ncc(C(C)(C)C)o4)s3)CC2)CC1 [Compound 123, 1-(1-Acryloylpiperidine-4-carbonyl)-N-(5-(((5-(tert-butyl)oxazol-2-yl)methyl)thio)thiazol-2-yl)piperidine-4-carboxamide] |  |  | < 0.5
11 | C=CC(=O)Nc1ccc(C(=O)N2CCC(C(=O)Nc3ncc(SCc4ncc(C(C)(C)C)o4)s3)CC2)cc1 [Compound 122, 1-(4-Acrylamidobenzoyl)-N-(5-(((5-(tert-butyl)oxazol-2-yl)methyl)thio)thiazol-2-yl)piperidine-4-carboxamide] |  |  | < 0.5
12 | CN(C)C/C=C/C(=O)Nc1cccc(CN2CCC(C(=O)Nc3ncc(SCc4ncc(C(C)(C)C)o4)s3)CC2)c1 [Compound 127, (E)-N-(5-(((5-(tert-butyl)oxazol-2-yl)methyl)thio)thiazol-2-yl)-1-(3-(4-(dimethylamino)but-2-enamido)benzyl)piperidine-4-carboxamide] |  | 0.1 to 1 | < 0.5
13 | C=CC(=O)Nc1cccc(C(C)N2CCC(C(=O)Nc3ncc(SCc4ncc(C(C)(C)C)o4)s3)CC2)c1 (centres unmarked) [Compound 121, 1-(1-(3-Acrylamidophenyl)ethyl)-N-(5-(((5-(tert-butyl)oxazol-2-yl)methyl)thio)thiazol-2-yl)piperidine-4-carboxamide] | < 0.5 | 0.1 to 1 | 
